This is an account of results in patent publication US20240336587A1, “CANNABICHROMENE DERIVATIVES AND METHODS FOR MAKING AND USING THE SAME” (University of Mississippi, priority 2021, published 2024).

“Also recorded” adds a separate entry of the source.

For series [1] the following is noted: after parenteral administration; cited from earlier work.
In series [2] the test system is inflammatory nociception (acetic acid-induced abdominal writhes) in C57BL/6 mice. In words: Abdominal writhing test (acetic acid-induced writhes). The note with it: mouse; for efficacy in abdominal writhing (racemate, diastereoisomers, CBC vs vehicle): one-way ANOVA post-hoc Bonferroni, FIG. 4A. It is filed as in vivo. As for the experimental part: (§1) CBC and CBC-val-HS were dissolved in a solution of 10% ethanol/10% cremophore and 80% saline. Mice received IP injection of test compounds in a volume of 1.0 ml/kg for the abdominal writhing assay and 1.0 ml/kg, IP in the hot plate assay. For pharmacokinetic studies, drug was given in a volume of 1.0 ml/kg for tail vein and oral gavage administration. CBC-val-HS doses were calculated to be the dose equivalent of CBC.
(§2) All experimental procedures were approved by the University of Mississippi Institutional Animal Care and Use Committee (Protocol #19-009). Animal studies reported in compliance with the ARRIVE guidelines. Male wild-type C57BL/6 mice (7-10 weeks, 17-30 grams) were used for all behavioral studies and Male CD-1 (6-7 weeks, 20-25 grams) were used for all pharmacokinetic studies. Mice were purchased from Envigo, (Indianapolis, IN, USA) and acclimated for one week prior to experimentation. Mice were group-housed (n=4-5) in a polycarbonate tub with soft bedding in a temperature (22°±2) and humidity-controlled vivarium under a normal 12:12 h light/dark cycle (lights on at 06:00) with food and water ad libitum. Behavioral testing was performed during the hours of 08:00-18:00 with 30-minute acclimation to the testing room for all studies. Mice were assigned treatments through random block assignment per cage and experimenters were blinded to treatment conditions. Equipment was thoroughly sanitized with 70% ethanol between mice.
Abdominal writhing testing was used to quantify inflammatory nociception. Testing was conducted in clear, open-top, acrylic observation chambers (12.7×15.24 cm) located on a smooth surface. Test compounds were administered IP 30 minutes prior to behavioral testing. For testing, mice were then given an IP injection of 0.7% acetic acid in a volume of 10.0 ml/1 kg and immediately placed in an observation chamber for 30-minute test. The number of abdominal writhes served as the dependent measure.

The subject of series [3] is thermal nociception in C57BL/6 mice. In words: Hot plate test (thermal nociception, 52° C.). It is filed as in vivo. Conditions: mouse, IP 30 minutes prior; FIG. 4B. As to the method: as §1
as §2, with “Mice were assigned treatments through random block assignment per cage and experimenters were blinded to treatment conditions. Equipment was thoroughly sanitized with 70% ethanol between mice.” left out
The hot plate (Harvard Instruments, Model #52-8570) was used to quantify thermal nociception. […]

Series [4] is described as follows: Pharmacokinetic study, plasma levels by LC-MS-MS. It is filed as in vivo, mouse. As for the experimental part: as §1, §2
A pharmacokinetic study of CBC and CBC-val-HS was conducted using either intraperitoneal (IP), oral gavage, or and intravenous (IV; lateral tail vein) administration routes. For each route, four to five subjects were sacrificed at 0, 0.05, 0.25, 0.5, 1, 2, 4, 8, and 24 hr after drug administration. Mice were anesthetized with isoflurane, and whole blood was collected by cardiac puncture. Plasma was isolated by centrifugation (2000 rpm, 5 min) and stored at −80° C. until assayed.
For CBC in the plasma samples were extracted using solid phase cartridges. CBC-VHS plasma samples were diluted with cold acetonitrile, sonicated, centrifuged, transferred supernatant to another extraction tube, evaporated the solvent and reconstituted with acetonitrile for the analysis. The LC-MS-MS system consists of a Shimadzu Prominence UHPLC with a dual pump, a vacuum solvent micro-degasser, a controlled-temperature auto-sampler, and an MS-MS detector (Applied Biosystems/MSD Sciex QTRAP 4500/3200 with a turbo-ion ESI source operating the positive-ion multiple reaction monitoring, or MRM, mode). […] Deuterated internal standard D3-CBC was used for the quantitation of CBC and CBCVHS. The peak area corresponding to each extracted MRM was measured and correlated to a multiple point calibration curve to determine the plasma concentration of each analyte. […]

The test system of a further series is paw edema. Conditions: restricted to high doses of over 100 mg/kg; cited from earlier work.
In a further series the test system is intestinal inflammation. Conditions: far lower doses; cited from earlier work.
The next series has as its system nociception. Conditions: effect was time-dependent; cited from earlier work.

For the compound `CCCCCc1cc(OC(=O)C(NC(=O)CCC(=O)O)C(C)C)c2c(c1)OC(C)(C)C1CCC(C)=CC21` (centres unmarked) [THC-Val-HS], the “presence of the Val-HS derivative in plasma (comparator cannabinoid derivatives)” value in series [1] is listed as “not found in plasma”.

For the compound `CCCCCc1cc(OC(=O)C(NC(=O)CCC(=O)O)C(C)C)c2c(c1)OC(C)(CCC=C(C)C)C=C2` (racemic) [CBC-Val-HS, cannabichromene-valinate-hemisuccinate], the “number of acid-induced abdominal writhes” value in series [2] (increasing doses, IP 30 minutes prior to acetic acid injection, FIG. 2) was “significantly decreased”. In addition, in series [2] (IP, two-way ANOVA, drug factor F=1.62, p=0.38), the “overall efficacy or potency in comparison to CBC, abdominal writhing” value is listed as “No differences in overall efficacy or potency; also recorded: equally efficacious”. For the same compound, the “efficacy in abdominal writhing (racemate, diastereoisomers, CBC vs vehicle)” value in series [2] is “as effective as CBC”. In addition, the “latency to hotplate withdrawal (anti-nociception against thermal pain)” value in series [3] is “displayed anti-nociceptive potential”. Moreover, in series [4] (intravenous administration, in the hour following administration, FIG. 3A), the “peak concentration relative to peak concentration of CBC at the same dose equivalent” value is “greater than 10 × higher”. In series [4] (parenteral or oral administration to animals), the “chemical entity detected in circulating plasma” value is given as “the major chemical component detected in the circulating plasma is the intact CBC-Val-HS; also recorded: a majority of CBC-Val-HS remained intact in circulation”. Besides, in series [4] (plasma after administration), the “fraction observed in the plasma as intact CBC-Val-HS” value is “two-thirds” and the “fraction of the derivative observed in the plasma as free CBC” value was “about one-third”.

Turning to `CCCCCc1cc(O)c2c(c1)OC(C)(CCC=C(C)C)C=C2` (centres unmarked) [CBC, Cannabichromene], the “efficacy in abdominal writhing (racemate, diastereoisomers, CBC vs vehicle)” value in series [2] was “effective”. In the series with paw edema, the “anti-inflammatory / anti-edematous properties in vivo” value was “mild anti-inflammatory, or anti-edematous properties”. In the series on intestinal inflammation, the “activity against intestinal inflammation in vivo” value is on record as “protective activity”. In the series on nociception, the “anti-nociceptive effect in tail-flick” value is “biphasic anti-nociceptive effects”.

With `C=C(C)C1CCC(C)=CC1c1c(OC(=O)[C@@H](NC(=O)CCC(=O)O)C(C)C)cc(CCCCC)cc1OC(=O)[C@@H](NC(=O)CCC(=O)O)C(C)C` (some centres unmarked) [CBD-Val-HS], the “presence of the Val-HS derivative in plasma (comparator cannabinoid derivatives)” value in series [1] is given as “the only entity found in the plasma”.
